Source: patent publication US11628186B2, “Method and composition for the reduction of viral replication, duration and spread of the COVID-19 and the flu” (priority 2017, dated 2023)

Assays:
[1] = Rat studies of irritation or toxicity; assay type: in vivo; conditions: 100× concentrations of the 5 mM sodium pyruvate
Text: Ethane and alcohol are lung irritants.

[2] = test system: subjects diagnosed with Severe COPD requiring supplemental oxygen; experiment: SaO2 pilot study, single inhalation dose, blinded cross-over; assay type: in vivo, human
Method: A total of five (5) subjects diagnosed with Severe COPD (chronic bronchitis or emphysema) and requiring supplemental oxygen at rest were enrolled in this study at the University of Connecticut. Each subject received a single inhalation dose of either 0.5 mM sodium pyruvate, 5.0 mM sodium pyruvate or 0.9% sodium chloride at each Study Visit. The dose was administered in a blinded cross-over manner at 1 week intervals; such that all subjects received each study compound. Safety and therapeutic efficacy were evaluated by the following measurements: spirometry, expired breath NO level, SaO2, vital signs, and follow-up telephone interviews.
The study was conducted in four visits: a Screening Visit and Study Visits 1-3. The effect of the inhalation of a single dose of sodium pyruvate (0.5 mM and 5.0 mM) or placebo (0.9% sodium chloride) was studied in a double-blind protocol. The primary efficacy outcome objective was the SaO2 levels for all subjects. In addition, COPD subjects were evaluated by lung function (FEV1 and PEF) and expired breath NO levels obtained just prior to and then at 60 minutes and at 3 hours in the second study, following the administration of the particular sodium pyruvate dose.

[3] = test system: patients with sinus & lung diseases including IPF and COPD; experiment: Salts of pyruvate as 20 mM nasal sprays (Table IX)
Text: They never tested the individual salts for their ability to reduce inflammation or increase lung functions.

[4] = test system: Asthmatic and COPD patients; experiment: Phase I/II clinical trials of sodium pyruvate in saline by inhalation; assay type: in vivo, human
[5] = test system: patients with Allergic Rhinitis other lung diseases; experiment: Two-year log of 367 patients using the 20 mM sodium pyruvate nasal spray (Table XIII); assay type: in vivo, human; conditions: healthy patients with no underlying diseases; 20 mm in at least 0.9% sodium chloride
Method: Table XIII. 367 patients over a two-year period. Each patient was provided with a log page to record the effect of inhaled 20 mM sodium pyruvate surfactant enhancer formula. The FDA has recommended that we do a phase three clinical for Allergic Rhinitis for patients where steroids are counter indicated i.e. Children, pregnant women and diabetics. Percentage measurements in patients with Allergic Rhinitis other lung diseases. 20 mM sodium pyruvate formula in 0.9% saline […] was inhaled. Overall rating was 1-10 with 1 being the most negative and 10 being the best result. The increase in nasal and lung surfactants and nasal and lung nitric oxide inhibited the docking and adhesion of viruses in the patients listed below with especially in patients with diabetes or hypoxemia. All these viruses including coronavirus, the flu (influenza A or B) and rhinovirus were unable to dock on the ACE2 type receptor and reduced the rate, severity, duration and spread of the viruses.

[6] = test system: patients with hypoxemia with and without lung diseases; experiment: Comparison of 5 ml of 5 mM sodium pyruvate saline formulas (Table III); assay type: in vivo, human; conditions: 5 ml of 5 mM formula
[7] = test system: patients with sinus & lung diseases including IPF and COPD; experiment: 20 mM sodium pyruvate nasal sprays with individual or combined ions (Table X); assay type: in vivo, human
Text: This patent combined dozens of ingredients, including the use of enzyme, growth factors, sugars, nucleotide and vitamins, amino acids and sodium pyruvate, other nutrients and calcium chloride, magnesium chloride and calcium phosphate other ingredients to stimulate the growth of cartilage and collagen for knees and joints.

[8] = test system: patients with lung diseases including COPD; experiment: Comparison of inhaled salts of pyruvate, 5 ml of 5 mM solution (Table II)
[9] = 20 mM (0.22%) nasal spray in 0.9% sodium chloride
[10] = 5 ml of the 0.5 mM solution in saline
[11] = 20 mM sodium pyruvate nasal spray in saline with the listed ions

CC(=O)C(=O)[O-].[Na+] [Sodium, sodium pyruvate]
irritation or toxicity [1]: not to have any irritation or toxicity | Adverse Events ([2]; 0.5 mM and 5.0 mM single dose): no Adverse Events | Nitric oxide levels increased ([2]; 5 mM inhaled solution): 19% | change in the FEV1 or SaO2 compared to pre inhalation values ([2]; single inhalation of 0.5 mM or 5.0 mM in saline): No significant change | Increased in FEV-1% [3, 9]: 12.0% | Irritation [3, 9]: none | Percentage Increase in SaO2 over baseline [3, 9]: 2% | Percentage increase of Nitric Oxide over baseline [3, 9]: 19.0% | Relief of congestion, coughing and lung tightness [3, 9]: 6 | Overall Rating 1-10 ([3]; 20 mM (0.22%) nasal spray, 1 most negative, 10 best): 7 | increasing FEV1 values [4, 10]: over 12% | reducing nitric oxide [4, 10]: 19.2% | FEV1 values ([4]; higher concentrations 1.5 mM or 5.0 mM in saline): did not increase FEV1 values | increase nitric oxide levels ([4]; solutions of 1.5 to 5 mM): 19% | amount of flu or colds reduced [5]: 52% | duration of the infection symptoms in days reduced [5]: 56% | Percentage Increase in FEV-1 over baseline ([6]; inhaled): 4.0% | Percentage Increase in SaO2 over baseline ([6]; inhaled): 0% | Percentage increase of Nitric Oxide over baseline ([6]; inhaled): 18.0%^ | Relief of Congestion and lung tightness 1-10 ([6]; inhaled): 5 | Relief of coughing percentage decrease in four hours ([6]; inhaled): 15% | Overall Rating 1-10 ([6]; 1 most negative, 10 best): 7 | Increased in FEV-1% [7, 11]: 12.0% | Irritation [7, 11]: None | Percentage Increase in SaO2 over baseline [7, 11]: 2% | Percentage increase of Nitric Oxide over baseline [7, 11]: 20.0% | Relief of congestion, coughing and lung tightness [7, 11]: 6 | Overall Rating 1-10 ([7]; 1 most negative, 10 best): 7 | Increased in FEV-1% ([8]; 5 ml of 5 mM solution in saline, inhaled): 2.0% | Irritation ([8]; 5 ml of 5 mM solution, inhaled): none | Percentage Increase in SaO2 over baseline ([8]; 5 ml of 5 mM solution, inhaled): 1% | Percentage increase of Nitric Oxide over baseline ([8]; 5 ml of 5 mM solution, inhaled): 19.0% | Relief of congestion, coughing and lung tightness ([8]; 5 ml of 5 mM solution, inhaled): 5 | Overall Rating 1-10 ([8]; 5 ml of 5 mM solution, 1 most negative, 10 best): 8
